According to patent publication US20230257367A1, “NOVEL THYROID HORMONE BETA RECEPTOR AGONIST” (Chengdu Kanghong Pharmaceutical Co., Ltd., priority 2020, published 2023):

How the values were obtained:
TRβ-LBD/RXRα = biological target: T1, TRβ-LBD/RXRα (Homo sapiens, UniProt P10828); assay: In vitro binding experiment (TR-FRET SRC2-2 co-activator peptide recruitment), TRβ; assay type: biochemical; settings: 4 h incubation at room temperature
T1 construct: TRβ-LBD (Invitrogen, PV4764) with a GST tag were used; purchased Invitrogen (TRβ-LBD); Pharmaron (RXRα) PV4764

TRα = biological target: T2, TRα (Homo sapiens, UniProt P10827); assay: In vitro TRα cell transfection experiment (GAL4 luciferase reporter, HEK293T); assay type: cell-based
T2 construct: host or cells: HEK293T
T2 sequence (P10827 1-410 isoform P10827-2): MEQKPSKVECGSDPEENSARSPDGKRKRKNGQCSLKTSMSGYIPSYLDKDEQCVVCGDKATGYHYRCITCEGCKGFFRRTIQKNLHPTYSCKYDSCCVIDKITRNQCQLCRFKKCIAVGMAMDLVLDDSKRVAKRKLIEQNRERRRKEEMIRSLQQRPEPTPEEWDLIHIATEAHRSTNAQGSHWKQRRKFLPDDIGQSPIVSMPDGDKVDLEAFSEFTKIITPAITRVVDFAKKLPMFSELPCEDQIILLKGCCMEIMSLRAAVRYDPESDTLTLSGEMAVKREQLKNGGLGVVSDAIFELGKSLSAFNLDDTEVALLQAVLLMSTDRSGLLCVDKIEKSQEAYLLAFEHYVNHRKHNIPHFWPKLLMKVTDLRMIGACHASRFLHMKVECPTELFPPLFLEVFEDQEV
T2 sequence (P19793 227-458 partner limits assumed): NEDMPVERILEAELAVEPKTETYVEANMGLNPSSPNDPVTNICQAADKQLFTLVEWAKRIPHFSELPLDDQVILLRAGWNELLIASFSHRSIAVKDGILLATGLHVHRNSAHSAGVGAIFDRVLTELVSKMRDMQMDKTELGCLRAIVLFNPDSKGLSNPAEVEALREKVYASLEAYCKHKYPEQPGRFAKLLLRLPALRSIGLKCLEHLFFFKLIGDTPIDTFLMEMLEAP

TRβ = biological target: T3, TRβ (Homo sapiens, UniProt P10828); assay: In vitro TRβ cell transfection experiment (GAL4 luciferase reporter, HEK293T); assay type: cell-based
T3 construct: host or cells: HEK293T
T3 sequence (P10828 217-461 limits assumed): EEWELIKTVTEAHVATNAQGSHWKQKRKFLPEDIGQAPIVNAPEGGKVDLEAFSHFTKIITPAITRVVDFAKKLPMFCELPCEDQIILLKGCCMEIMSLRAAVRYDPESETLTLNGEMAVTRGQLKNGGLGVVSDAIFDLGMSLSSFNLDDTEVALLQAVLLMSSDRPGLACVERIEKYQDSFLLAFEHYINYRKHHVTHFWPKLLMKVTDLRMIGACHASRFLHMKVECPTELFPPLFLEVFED
T3 sequence (P19793 227-458 partner limits assumed): T2 sequence (P19793 227-458 partner limits assumed)

primary hepatocyte = assay: Hepatotoxicity detection in vitro (CellTiter-Glo); assay type: cell-based, human; settings: primary hepatocytes
Method: Information of Primary Hepatocyte
Step 1: a test substance was prepared into a 200 mM DMSO stock solution, and then subjected to 3-times gradient continuous dilution by 7 concentrations, then 1.5 μL of each of the solutions of the 8 concentrations was added into 498.5 μL of incubation culture medium (with a composition referring to Table 5, directly mixed evenly) to prepare a working solution, and the incubation culture medium was preheated at 37° C. before preparation. DMSO was used as a solvent control. DMSO contents in the working solution and the solvent control were both 0.3 vol %. Concentrations of compounds were as follows:
Step 2: Plate Inoculation and Cell Culture
Second Step: Plate Inoculation and Culture of Cells
1) A tube of hepatocytes of the donor used in the experiment preserved at ultra-low temperature was taken, and the hepatocytes were ensured to be still frozen at low temperature before resuscitation. The hepatocytes were quickly placed in a water bath at 37° C. and gently shaken until all ice crystals were dispersed, and were transferred to a biosafety cabinet after spraying 70 vol % ethanol.
2) Contents of hepatocyte tubules were poured into a 50 mL centrifuge tube containing 50 mL of resuscitation culture medium (with a composition referring to Table 3, directly mixed evenly), and centrifuged at 80 g for 8 minutes. After centrifugation, the resuscitation culture medium was sucked out and an inoculation culture medium was added (with a composition referring to Table 4, directly mixed evenly). The cells were counted by AO/PI staining to obtain a cell suspension with a cell density of 0.2×10^6 cells per milliliter.
3) The cell suspension above was inoculated into a 96-well plate coated with collagen I, with 100 μL per well. The culture plate was placed in a 5% CO2 incubator with 95% relative humidity to culture for 4 hours to 6 hours.
4) After incubation for 4 hours to 6 hours, the state of the cells was observed under microscope. The culture plate was shaken gently, the inoculation culture medium was sucked out, and 100 μL of incubation culture medium was added into each well (with a composition referring to Table 5). A toxicity test could be carried out after culturing in the incubator for 18 hours to 20 hours.
5) Before administration, the morphology of the cells was observed under microscope. The culture medium in the culture plate was sucked out, and 100 μL of solvent control (DMSO), or test substance working solution was added into each well. Three parallel samples were tested under each condition.
6) The newly prepared working solution or solvent control was used for solution exchange every 24 hours after dosing.
After the working solution acted for 48 hours, the morphology of the cells was observed under microscope for later use.
Step 3: Cytotoxicity Detection
1) A CellTiter-Glo (Promega, article number G9243) reagent stored at −20° C. was melted in a water bath at 37° C.
2) After the cell culture plate obtained above was incubated for 48 hours, 50 μL of CellTiter-Glo solution was directly added into each experimental well.
3) The cell culture plate was vortexed at 400 rpm for 10 minutes, and incubated at room temperature to stabilize a luminescence signal.
After 10 minutes 100 μL of reaction solution was sucked from each well and transferred to a new white nontransparent-bottom flat plate (Corning 96-well plate Cat No. 3917). The
chemiluminescence value of each well was read by a microplate reader (a luminescence value of the white nontransparent-bottom flat plate was recorded as “a luminescence valueblank”; and a luminescence value of the solvent control was recorded as “a luminescence valuesolvent”).
Cell viability(%)=[(luminescence valueto-be-tested compound−luminescence valueblank)/(luminescence valuesolvent−luminescence valueblank)]×100% […]

T1 sequence (P19793 whole entry partner, other chains not shown, the tested form may be a part): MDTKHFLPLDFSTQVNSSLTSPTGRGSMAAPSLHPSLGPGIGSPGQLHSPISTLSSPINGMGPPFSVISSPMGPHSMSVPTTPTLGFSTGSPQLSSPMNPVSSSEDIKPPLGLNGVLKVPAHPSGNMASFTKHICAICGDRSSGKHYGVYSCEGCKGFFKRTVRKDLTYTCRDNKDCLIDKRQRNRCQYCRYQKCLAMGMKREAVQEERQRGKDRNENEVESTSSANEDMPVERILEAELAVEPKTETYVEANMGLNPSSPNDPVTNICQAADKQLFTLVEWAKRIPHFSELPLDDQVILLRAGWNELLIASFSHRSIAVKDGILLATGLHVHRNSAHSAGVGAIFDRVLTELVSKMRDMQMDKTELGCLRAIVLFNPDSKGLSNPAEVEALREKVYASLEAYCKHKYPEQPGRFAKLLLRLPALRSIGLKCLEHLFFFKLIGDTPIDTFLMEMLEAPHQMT

CC(C)c1nc(Oc2c(Cl)cc(-n3ncc(=O)[nH]c3=O)cc2Cl)ncc1O [KH06]
EC50 (TRβ-LBD/RXRα): 0.007 µM
EC50 (TRα): 0.037 µM
EC50 (TRβ): 0.009 µM
IC50 (primary hepatocyte; Homo sapiens, Hepatocyte, cell viability after 48 hours): 207 µM
Cell activity at the highest concentration (%) (primary hepatocyte; 48 hours, highest working solution concentration 600 μM): 4.50%
